Experimental data reported in patent US20220408756A1, “POULTRY FEED AND DRINKING WATER COMPOSITION COMPRISING MONOMETHYLSILANETRIOL” (RXW Group nv, priority 2019, published 2022).

Columns and labels:
broiler chicken [1] = experiment: Footpad and chest lesion scores; format: in vivo; settings: 1.48 mg/l Si-MMST in drinking water; D41
Description: (§1) A study was conducted to investigate the effect of silicium supplementation in drinking water of broiler chicken on their performance, locomotive system, skin healing and bone formation. Silicium was supplemented in 2 treatment groups. A third group was used as control and not treated with silicium. Silicium-monomethylsilanetriol (Si-MMST) was administrated at 2 different concentrations. More specific, Si-MMST was added to drinking water at 0.3 mg/l and 1.48 mg/l. These refer to the final silicium concentrations as measured by ICP-AES. Birds were moreover reared on humidified bedding material to simulate bad housing conditions and induce mild locomotive and skin complications. During the study, performance was assessed by weighing birds and monitoring feed intake on specific time points, separating the study in a starter, grower and finisher period. Additionally, mobility of the birds was assessed at the end of the grower (D33) and finisher period (D41) by means of gait scoring (Kestin et al., 1992). At the end of the trial (D41), footpad and chest lesions, femur head necrosis and tibia dyschondroplasy were assessed by qualified veterinarians, which also isolated 1 tibia per bird for bone strength and composition analysis. The main results of this study are summarizes in table 1.
More specific, the average footpad lesion score decreased from 1.31 in the UC to 0.9 in the 0.3 mg/l Si-MMS treatment group.

broiler chicken [2] = experiment: Femur head necrosis and tibia dyschondroplasy scores; format: in vivo; set-up: Femur head necrosis score (mean): scale not given here; settings: D41; for Tibia dyschondroplasy score (mean) / Tibia dyschondroplasy, number of birds with score 0 / Tibia dyschondroplasy, number of birds with score 1 / Tibia dyschondroplasy, number of birds with score 2: unilateral, scale 0 to 2
Description: as §1
As 1 of the 2 tibia needs to be isolated unimpaired, tibia dyschondroplasy could only be scored unilateral. Therefore the tibia dyschondroplasy scoring ranges from 0 to 2 instead of 0 to 5.
On D41, all birds were scored for femur head necrosis and tibia dyschondroplasy as described in table 8. No significant differences could be observed between the UC and silicium treated groups based on femur head necrosis and tibia dyschondroplasy.

broiler chicken [3] = experiment: Bone strength measurement (tibia); format: in vivo; settings: D41
Description: as §1
(§2) On D41, one tibia of each bird was collected for analysis. Initially, we selected 2 birds in each pen (first 2 numbers/pen) to obtain 50 samples for analysis of bone weight, fracture force (N), maximum force (N), stiffness (N/mm), bone dry matter (%), bone ash (%), phosphorus content (%), calcium content (%), copper content (mg/kg), manganese content (mg/kg) and zinc content (mg/kg). The results of bone strength measurement per treatment group are presented in table 9 and analysis on bone composition is represented in table 10.

broiler chicken [4] = experiment: Bone composition measurements (tibia); format: in vivo; settings: for Bone ash / Bone calcium content / Bone copper content / Bone dry matter / Bone phosphorus content / Bone zinc content: D41; for Bone manganese content: D41, values below detection limit (<5) set to 2.5
Description: as §1, §2

Stability in water = format: physicochemical
Description: This organosilicon compound is highly bioavailable. […] MMST can advantageously be used without stabilizers in silicon equivalent concentrations up to 300 mg/l. The stability of MMST is dependent on concentration and declines at higher concentrations. The stability can be enhanced by the use of stabilizing agents.

[5] = 0.3 mg/l Si-MMST in drinking water
[6] = 1.48 mg/l Si-MMST in drinking water

With C[Si](O)(O)O [Si-MMST, monomethylsilanetriol] the “Footpad lesion, number of birds with score 0” value (broiler chicken [1]) was 8, the “Footpad lesion, number of birds with score 1” value (broiler chicken [1]) was 27 and the “Footpad lesion, number of birds with score 2” value (broiler chicken [1]) was 10. For the same molecule, the “Femur head necrosis score (mean)” value (broiler chicken [2]; [5]) was 1.29, the “Femur head necrosis, number of birds with score 0” value (broiler chicken [2]; [5]) was 10 and the “Femur head necrosis, number of birds with score 1” value (broiler chicken [2]; [5]) was 15. The “Femur head necrosis, number of birds with score 2” value (broiler chicken [2]; [5]) was 24, the “Femur head necrosis, number of birds with score 3” value (broiler chicken [2]; [5]) was 0 and the “Femur head necrosis, number of birds with score 5” value (broiler chicken [2]; [5]) was 0. For the same molecule, the “Tibia dyschondroplasy score (mean)” value (broiler chicken [2]; [5]) was 0.10, the “Tibia dyschondroplasy, number of birds with score 0” value (broiler chicken [2]; [5]) was 44 and the “Tibia dyschondroplasy, number of birds with score 1” value (broiler chicken [2]; [5]) was 5. For the same molecule, the “Tibia dyschondroplasy, number of birds with score 2” value (broiler chicken [2]; [5]) was 0, the “Femur head necrosis score (mean)” value (broiler chicken [2]; [6]) was 1.2 and the “Femur head necrosis, number of birds with score 0” value (broiler chicken [2]; [6]) was 15. The “Femur head necrosis, number of birds with score 1” value (broiler chicken [2]; [6]) was 7, the “Femur head necrosis, number of birds with score 2” value (broiler chicken [2]; [6]) was 22 and the “Femur head necrosis, number of birds with score 3” value (broiler chicken [2]; [6]) was 1. For the same molecule, the “Femur head necrosis, number of birds with score 5” value (broiler chicken [2]; [6]) was 0, the “Tibia dyschondroplasy score (mean)” value (broiler chicken [2]; [6]) was 0.09 and the “Tibia dyschondroplasy, number of birds with score 0” value (broiler chicken [2]; [6]) was 41. For the same molecule, the “Tibia dyschondroplasy, number of birds with score 1” value (broiler chicken [2]; [6]) was 4, the “Tibia dyschondroplasy, number of birds with score 2” value (broiler chicken [2]; [6]) was 0 and the “Bone weight (mean)” value (broiler chicken [3]; [5]) was 12.3 g. The “Fracture force (mean)” value (broiler chicken [3]; [5]) was 360.7 N, the “Maximum force (mean)” value (broiler chicken [3]; [5]) was 372.5 N and the “Stiffness (mean)” value (broiler chicken [3]; [5]) was 148.8 N/mm. For the same molecule, the “Bone weight (mean)” value (broiler chicken [3]; [6]) was 13.2 g, the “Fracture force (mean)” value (broiler chicken [3]; [6]) was 400.6 N and the “Maximum force (mean)” value (broiler chicken [3]; [6]) was 409.6 N. For the same molecule, the “Stiffness (mean)” value (broiler chicken [3]; [6]) was 164.3 N/mm, the Bone ash (broiler chicken [4]; [5]) was 22.6% and the Bone calcium content (broiler chicken [4]; [5]) was 35.3%. It also gave a Bone copper content (broiler chicken [4]; [5]) of 3.3 mg/kg, a Bone dry matter (broiler chicken [4]; [5]) of 49.0% and a Bone phosphorus content (broiler chicken [4]; [5]) of 17.8%. For the same molecule, the Bone zinc content (broiler chicken [4]; [5]) was 326.9 mg/kg, the Bone manganese content (broiler chicken [4]; [5]) was 7.4 mg/kg and the Bone ash (broiler chicken [4]; [6]) was 22.9%. The Bone calcium content (broiler chicken [4]; [6]) was 35.1%, the Bone copper content (broiler chicken [4]; [6]) was 3.2 mg/kg and the Bone dry matter (broiler chicken [4]; [6]) was 49.1%. The Bone phosphorus content (broiler chicken [4]; [6]) was 17.6%, the Bone zinc content (broiler chicken [4]; [6]) was 340.3 mg/kg and the Bone manganese content (broiler chicken [4]; [6]) was 8.2 mg/kg. The “silicon equivalent concentration usable without stabilizers” value (Stability in water; in water, without stabilizers) was “up to 300 mg/l” and the stability in water (Stability in water; low concentrations) was “sufficiently stable”.
